# Assay results reported in ChEMBL document CHEMBL5150065, “Design, synthesis, and bioevaluation of imidazo [1,2-a] pyrazine derivatives as tubulin polymerization inhibitors with potent anticancer activities” (Bioorg Med Chem, 2022).
# Legend:
# HepG2 = test: Antiproliferative activity against human HepG2 cells assessed as inhibition of cell growth incubated for 48 hrs by MTT assay; assay type: functional, cell-based; conditions: HepG2, 48 h
# HCT-116 [1] = test: Antiproliferative activity against human HCT-116 cells assessed as inhibition of cell growth incubated for 48 hrs by MTT assay; assay type: functional, cell-based; conditions: HCT-116, 48 h
# A549 = test: Antiproliferative activity against human A549 cells assessed as inhibition of cell growth incubated for 48 hrs by MTT assay; assay type: functional, cell-based; conditions: A549, 48 h
# MDA-MB-231 = test: Antiproliferative activity against human MDA-MB-231 cells assessed as inhibition of cell growth incubated for 48 hrs by MTT assay; assay type: functional, cell-based; conditions: MDA-MB-231, 48 h
# HCT-116 [2] = test: Induction of cell cycle arrest in human HCT-116 cells assessed as G1 phase cells at 20 nM measured after 48 hrs by propidium iodide/RNase staining based flow cytometry analysis (reference value: 61.51 %); assay type: functional
# HCT-116 [3] = test: Induction of cell cycle arrest in human HCT-116 cells assessed as S phase cells at 20 nM measured after 48 hrs by propidium iodide/RNase staining based flow cytometry analysis (reference value: […] %); assay type: functional
# HCT-116 [4] = test: Induction of cell cycle arrest in human HCT-116 cells assessed as increase in G2/M phase cells at 20 nM measured after 48 hrs by propidium iodide/RNase staining based flow cytometry analysis (reference value: […] %); assay type: functional
Structure (SMILES),IC50 (HepG2) [µM],IC50 (HCT-116 [1]) [µM],IC50 (A549) [µM],IC50 (MDA-MB-231) [µM],Activity (HCT-116 [2]) [%],Activity (HCT-116 [3]) [%],Activity (HCT-116 [4]) [%]
COc1ccc(-c2cn3ccnc(-c4cc(OC)c(OC)c(OC)c4)c3n2)cc1N,0.123,0.122,0.309,0.111,,,
COc1cc(C(=O)c2cn3cc(Br)nc(Cl)c3n2)cc(OC)c1OC,5.12,1.62,8.26,6.77,,,
COc1cc(C(=O)c2cn3ccc(F)cc3n2)cc(OC)c1OC,> 10,> 10,> 10,> 10,,,
COc1cc(C(=O)c2cn3ccnc(-c4ccc(C)cc4)c3n2)cc(OC)c1OC,> 10,> 10,7.9,> 10,,,
COc1cc2c(c(OC)c1OC)-c1ccc(OC)c(=O)cc1[C@@H](NC(C)=O)CC2 [COLCHICINE],0.054,0.011,0.184,0.176,24.07,15.12,60.81
COc1cc(C(=O)c2cn3ccc(C)c([N+](=O)[O-])c3n2)cc(OC)c1OC,> 10,> 10,> 10,> 10,,,
COc1cc(-c2nccn3cc(-c4ccc(C(F)(F)F)cc4)nc23)cc(OC)c1OC,2.63,> 10,> 10,> 10,,,
COc1ccc(-c2cn3ccnc(-c4cc(OC)c(OC)c(OC)c4)c3n2)cc1[N+](=O)[O-],> 10,> 10,> 10,> 10,,,
COc1cc(C(=O)c2cn3ccnc(-c4ccc(F)cc4)c3n2)cc(OC)c1OC,> 10,> 10,> 10,> 10,,,
COc1cc(C(=O)c2cn3ccnc(-c4ccc5[nH]ccc5c4)c3n2)cc(OC)c1OC,> 10,0.689,> 10,> 10,,,
COc1cc(C(=O)c2cn3ccnc(-c4ccccc4)c3n2)cc(OC)c1OC,> 10,1.94,3.94,> 10,,,
COc1cc(-c2nccn3cc(-c4ccc([N+](=O)[O-])cc4)nc23)cc(OC)c1OC,> 10,> 10,> 10,> 10,,,
COc1cc(C(=O)c2cn3ccc(C(F)(F)F)cc3n2)cc(OC)c1OC,> 10,> 10,> 10,> 10,,,
